Assay results from patent US20120225093A1, “Abrogating HIV-1 Infection via Drug-Induced Reactivation of Apoptosis” (UNIVERSITY OF MEDICINE AND DENTISTRY OF NEW JERSEY, priority 2010, published 2012).

How the values were obtained:
H9-HIV cells = experiment: 89-kDa PARP fragment by flow cytometry in H9-HIV cells; format: cell-based; conditions: 30 μM CPX, 24 hr
Protocol: (§1) Intracellular antigens were determined, as geometric means of fluorescence, by flow cytometric analysis using a BD FACSCalibur™ and its BD FACStation System™ (Becton Dickinson; San Jose, Calif.). Intracellular antigens were stained according to the instrument producer's instructions. Anti-HIV-1 Tat antibody was from Abcam Inc. (Cambridge, Mass.); anti-HIV-1 Vpr from Santa Cruz Biotechnology (Santa Cruz, Calif.); anti-HIV-1 Rev from Advanced Biotechnologies Inc. (Columbia, Md.); anti-HIV-1 p24 (KC57) from Beckman Coulter, Miami, Fla.; monoclonal C92-605 anti-human caspase-3 (active form) from Pharmingen (BD Biosciences, San Diego, Calif.); monoclonal F21-852 anti-human poly (ADP-ribose) polymerase (caspase-cleaved 89-kDa fragment); and monoclonal 6C8 anti-human Bcl-2 from Becton Dickinson (BD Biosciences; San Diego, Calif.).
To determine whether the differential effects of the drugs extend into late apoptosis, PARP fragmentation in H9 and H9-HIV cells was measured. CPX caused an ˜8-fold increase in H9-HIV cells positive for 89-kDa PARP, compared to a ˜2 fold increase in H9 cells (FIG. 9A). By 24 hr, twice as many cells stained positive for 89-kDa PARP in the infected cultures as in uninfected cultures (27% compared to 14%; FIG. 9B). […] It is concluded that the retroviral suppression of initiation and execution of apoptosis is reversed by the drugs and transformed into enhanced susceptibility of HIV-infected cells to apoptosis.

uninfected H9 cells = experiment: 89-kDa PARP fragment by flow cytometry in uninfected H9 cells; format: cell-based; conditions: 30 μM CPX, 24 hr
Protocol: as §1
To determine whether the differential effects of the drugs extend into late apoptosis, PARP fragmentation in H9 and H9-HIV cells was measured. CPX caused an ˜8-fold increase in H9-HIV cells positive for 89-kDa PARP, compared to a ˜2 fold increase in H9 cells (FIG. 9A). By 24 hr, twice as many cells stained positive for 89-kDa PARP in the infected cultures as in uninfected cultures (27% compared to 14%; FIG. 9B). […]

## Cc1cc(C2CCCCC2)n(O)c(=O)c1 [CPX, 6-cyclohexyl-1-hydroxy-4-methylpyridin-2[1H]-one]
H9-HIV cells
  89-kDa PARP fluorescence intensity, infected versus uninfected: approximately one order of magnitude higher
  cells positive for 89-kDa PARP: 27%
H9-HIV cells; relative to untreated
  increase in cells positive for 89-kDa PARP: ~8 fold
Uninfected H9 cells
  cells positive for 89-kDa PARP: 14%
Uninfected H9 cells; relative to untreated
  increase in cells positive for 89-kDa PARP: ~2 fold
